Here are results for 10 compounds from patent US4104397A, “Spiro (1,3-dioxolane-4,3') quinuclidine compounds” (The Purdue Frederick Company, priority 1975, dated 1978).

Data set [1] in a line: Biological activity of the cis-isomer. Particulars: in words, cis/trans comparison.
Data set [2] has as its system mice. Put plainly: Salivation (sialigenic activity) in mice, Table 2. Format: in vivo. As to conditions: Mus musculus, ip, read-out: Salivation ED50 (ip). The source says:
(§1) Acute Toxicity, tremorigenic and sialigenic
(§2) *with 95% confidence limits, Litchfield & Wilcoxon, (1949).
**Chiang & Leaders, 1971

The test system of data set [3] is mice. Put plainly: Induced tremors in mice, Table 1. Format: in vivo. As to conditions: Mus musculus, ip, read-out: Induced tremors ED50 (ip). The source says:
(§3) cat mice cat Guinea pig ileum
(§4) *with 95% confidence limits (Litchfield et al, 1949)

For data set [4], the system named is mice. Nature of the data set: Tremors (tremorigenic activity) in mice, Table 2. Particulars: Mus musculus, ip, read-out: Tremors ED50 (ip). Type of data set: in vivo.
Source text: as §1, §2

For data set [5], the system named is mice. Particulars: Chiang & Leaders, 1971; cited from earlier work.
Data set [6] deals with Guinea pig ileum. Put plainly: Guinea pig ileum induced contraction in vitro, Table 1. Type of data set: cell-based. Particulars: equipotent molar ratio relative to ACh.
Source text: as §3
(iv) induced contraction
(§5) **EPMR: equipotent molar ratio relative to ACh. nmole: nannomoles

A short description of data set [7]: Acute toxicity in mice, Table 2. Particulars: mouse, in vivo.
Source text: as §2

In data set [8] the test system is blood pressure. Nature of the data set: Fall in blood pressure in vivo, Table 1. Set-up: species or system cat. As to conditions: iv; for ED50: Felis catus, read-out: Fall blood pressure ED50 (iv); for Fall blood pressure EPMR: equipotent molar ratio relative to ACh.
Source text: as §3, §4, §5

Data set [9] has as its system SCG. Nature of the data set: SCG (cat), antagonism to McN-A-343 induced contraction of NM. Format: in vivo. An excerpt:
|induced contraction of NM

Data set [10] concerns Oxotromorine induced tremors. Nature of the data set: Antagonism to oxotremorine induced tremors. Particulars: Mus musculus, sc. Type of data set: in vivo, Mice. On the procedure:
(§6) *With 95% confidence limits (Litchfield and Wilcoxon, 1949).
(§7) ^+ R1 =R2 =.PHI.,HCl is injected 20 min. prior to […]

For data set [11], the system named is Oxotromorine induced salivation. Put plainly: Antagonism to oxotremorine induced salivation. Particulars: Mus musculus, sc. Format: in vivo, Mice. The method, then:
as §6
**Oxotromorine, 170 μg/kg, ip (1.15 ED50) induced salivation.
as §7

Data set [12] deals with enzyme which desactivates acetylcholine. Nature of the data set: Stability to the enzyme which desactivates acetylcholine. Format: in vitro ADME. As to conditions: in words.
Data set [13] has as its system autonomic ganglionic and central muscarinic receptors. Nature of the data set: Cholinergic stimulant activity and specificity. Particulars: in words.
Data set [14] is described as follows: Anticholinergic activity. As to conditions: in words.
Data set [15] relates to Physostigmine induced lethality. Nature of the data set: Antagonism to physostigmine induced lethality. Particulars: Mus musculus, sc. Format: in vivo, Mice.
Source text: as §6

The nature of data set [16]: LD50 in mice, Table 3. As to conditions: mouse, in vivo, sc.
In data set [17] the test system is mydriatic activity. Put plainly: Relative mydriatic activity, Table 3. Format: in vivo. As to conditions: atropine sulphate = 1.
For data set [18], the target named is T1, Guinea-pig ileum (Cavia porcellus, UniProt H0W1Z3).
T1 construct: Guinea-pig ileum, log Ki; from tissue; host or cells: guinea-pig ileum
Put plainly: Antagonism in guinea-pig ileum (log Ki), Table 3. Format: cell-based. Particulars: printed as log Ki (negative).

In data set [19] the test system is Oxotromorine induced tremors and salivation. Put plainly: CNS/PNS activity (ED50 blockade of tremors / ED50 blockade of salivation). Type of data set: in vivo, Mice. Particulars: ED50 for blockade of tremors divided by ED50 for blockade of salivation; 95% confidence limits.
Source text: as §6

SMILES strings stand for the structures. “And” between values parts separate entries of the source, which are not always exact repeats. Equal values may be shown once. Where a name gives a salt, the structure may show the parent alone. Read-outs that look alike come from different tables or passages of the source.

T1 sequence (H0W1Z3 1-590): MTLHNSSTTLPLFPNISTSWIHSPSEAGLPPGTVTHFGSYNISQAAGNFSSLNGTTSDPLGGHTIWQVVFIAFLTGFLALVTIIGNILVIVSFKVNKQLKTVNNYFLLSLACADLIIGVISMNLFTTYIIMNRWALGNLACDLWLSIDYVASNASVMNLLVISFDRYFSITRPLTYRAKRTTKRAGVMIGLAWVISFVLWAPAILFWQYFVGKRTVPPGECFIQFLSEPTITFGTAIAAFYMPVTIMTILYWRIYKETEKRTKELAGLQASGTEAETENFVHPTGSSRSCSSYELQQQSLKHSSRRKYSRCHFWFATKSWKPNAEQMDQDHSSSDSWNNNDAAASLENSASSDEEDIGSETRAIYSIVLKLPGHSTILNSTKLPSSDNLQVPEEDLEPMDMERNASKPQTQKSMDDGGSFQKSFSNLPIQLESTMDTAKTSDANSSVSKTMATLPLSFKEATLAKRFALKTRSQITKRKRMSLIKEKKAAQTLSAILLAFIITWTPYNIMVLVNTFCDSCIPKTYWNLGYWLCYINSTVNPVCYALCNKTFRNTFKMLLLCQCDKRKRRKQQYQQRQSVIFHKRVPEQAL

`CC1OCC2(CN3CCC2CC3)O1` (single isomer, unassigned; isomer 2) [cis-isomer, 2-methyl spiro (1,3-dioxolane-4,3') quinuclidine]: in data set [1], the “biological activity of the cis-isomer” value was “greater biological activity”.
With `CC(=O)OC1CN2CCC1CC2` (stereo not drawn) [3-Acetoxyquinuclidine], the median effective dose (ED50) (usually the dose at which the effect has come halfway, by size or by number of responders) in data set [2] is 1.8 mg/kg and 8.8 µmol/kg; in data set [3], 7.5 mg/kg and 36.5 µmol/kg; in data set [4], 7.5 mg/kg and 36.5 µmol/kg; in data set [8], 0.0002 mg/kg and 0.001 µmol/kg. Besides, the “Salivation ED50 (ip)” value in data set [5] is listed as 2.9 mg/kg. The “Guinea pig ileum induced contraction EPMR” value in data set [6] turned out to be 14. In addition, the median lethal dose (LD50) (usually the dose expected to kill half of the subjects tested) in [7] (sc) stood at 112 mg/kg. Besides, the “Fall blood pressure EPMR” value in [8] (cat) amounted to 6.25.
Consider `CC(=O)OC(C)C[N+](C)(C)C` (stereo not drawn) [Acetyl-β-methyl choline], for which the “Guinea pig ileum induced contraction EPMR” value in data set [6] is 3.6.
As for `CC(=O)OCC[N+](C)(C)C` [Acetylcholine], in data set [8] (cat), the ED50 was found to be 0.00016 µmol/kg.
For the compound `CN1[C@@H]2CC[C@H]1CC(OC(=O)C(CO)c1ccccc1)C2` (stereo partly drawn) [Atropine Sulphate, reference compound], the “antagonism to McN-A-343 induced contraction of NM ED50 (ia)” value in data set [9] was found to be 1.4 µmol. Moreover, the 50% effective dose (ED50) in data set [10] came to 1 µmol/kg; in data set [11], 0.039 µmol/kg.
Consider `CC1OCC2(CN3CCC2CC3)O1` (stereo not drawn) [Example 1, 2-Methyl spiro (1,3-dioxolane-4,3')Quinuclidine], for which, in [12], the “destruction by the enzyme which desactivates acetylcholine” value was “not destroyed by the enzyme which desactivates acetylcholine”. Further, in data set [13], the cholinergic stimulant activity result was “specific and powerful cholinergic stimulant”; the “specificity towards autonomic ganglionic and central muscarinic receptors” value is “high degree of specificity”.
Regarding `c1ccc(C2(c3ccccc3)OCC3(CN4CCC3CC4)O2)cc1` (stereo not drawn) [Example 3, 2,2-diphenyl spiro (1,3-dioxolane-4,3')quinuclidine], the anticholinergic activity entry in [14] is “powerful anticholinergic agent”.
In the case of `CC1OCC2(CN3CCC2CC3)O1` (stereo not drawn) [I,R1 =H,R2 =-CH3.HCl, 2-methyl spiro (1,3-dioxolane-4,3') quinuclidine], the 50% effective dose (ED50) in data set [2] (mice) was 3 mg/kg and 13.7 µmol/kg; in [3] (mice), 4.5 mg/kg and 20.5 µmol/kg; in data set [4] (mice), 4.5 mg/kg and 20.5 µmol/kg; in data set [8] (cat), 0.0066 mg/kg and 0.0301 µmol/kg. For the same compound, the “Guinea pig ileum induced contraction EPMR” value in data set [6] is given as 240. The same compound had an LD50 in data set [7] (sc) of 220 mg/kg. The “Fall blood pressure EPMR” value in data set [8] (cat) stood at 188.
On to `c1ccc(C2(c3ccccc3)OCC3(CN4CCC3CC4)O2)cc1` (stereo not drawn) [I,R1 =R2 =phenyl,HCl, 2,2-diphenyl spiro (1,3-dioxolane-4,3')quinuclidine], for which the “antagonism to McN-A-343 induced contraction of NM ED50 (ia)” value in data set [9] amounted to 0.5 µmol. In addition, the values for the ED50 in [10], in [15] and in [11] were 0.31 µmol/kg, 0.2 µmol/kg and 0.28 µmol/kg, respectively. In addition, the median lethal dose (LD50) in data set [16] came out at 40 mg/kg. In data set [17], this compound registered a Relative mydriatic activity of 1.5. Further, the affinity in data set [18] corresponds to a Ki of 0.251 nM. Moreover, the CNS/PNS activity in data set [19] is given as 1.1(0.77-1.56).
Take `O=C1CCCN1CC#CCN1CCCC1` [Oxotremorine]: the 50% effective dose (ED50) was 0.12 mg/kg and 0.63 µmol/kg in data set [2] (mice); 0.14 mg/kg and 0.73 µmol/kg in data set [4] (mice). Also, the LD50 in data set [7] (ip) came to 5 mg/kg.
